# Where no end group is shown, it is not given here.
# Target: T1, RNase A (Bos taurus, UniProt P61823)
# T1 sequence (P61823 27-150): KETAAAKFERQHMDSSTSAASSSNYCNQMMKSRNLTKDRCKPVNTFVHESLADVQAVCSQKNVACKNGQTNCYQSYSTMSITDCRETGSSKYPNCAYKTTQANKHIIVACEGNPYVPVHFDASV
# Assay: SPR biosensor binding analysis with immobilized RNase A
# Parameters: Ribonuclease A (Type II-A) from bovine pancreas; purchased Sigma-Aldrich Korea; host or cells: bovine pancreas; species or system bovine
# Settings: synthetic peptides, 0.37-10 μM; RNase A immobilized on Au chip; read-out: affinity constant (KD)
# Description: Binding analysis of the expressed FV antibody and synthesized peptides against RNase A was performed using an SPR (Surface Plasmon Resonance) biosensor from I-Cluebio (Seongnam, Korea). RNase A was immobilized on the gold surface of the SPR chip used in the SPR biosensor to conduct the binding analysis. For the manufacture of the SPR chip, a 2 nm thick titanium adhesive layer and a 48 nm thick gold surface were consecutively sputter-coated onto BK-7 glass (1×1 cm^2). […] To analyze the binding of the expressed Fv antibody to RNase A, Fv antibodies in the concentration range of 0.37-100 nM were reacted using PBS buffer as the […] through association (10 minutes), equilibrium (5 minutes), and dissociation (10 minutes) steps. The washing buffer and total SPR measurements were performed at a flow rate of 15 μL/min. For the binding analysis of the synthesized peptides against RNase A, peptides in the concentration range of 0.37-100 nM were reacted using PBS buffer as the washing buffer through association (10 minutes), equilibrium (5 minutes), and dissociation (10 minutes) steps, and total SPR measurements were conducted at a flow rate of 15 μL/min.
# Using the screened CDR3 amino acid sequences, the CDR3 regions of the screened Fv antibodies were synthesized as peptides, and the amino acid sequences were determined from the nucleotide sequences of the CDR3 regions as summarized in Table 2. These synthetic peptides (Peptide-1, Peptide-2, Peptide-3) and Fv antibodies (Fv-1, Fv-2, Fv-3) were identical to the amino acid sequences of the CDR3 regions of the screened clones. […] The SPR signal was plotted according to the concentration of the synthetic peptides, and the affinity constants (KD) of these synthetic peptides were calculated through a fitting process. […]
# Using the screened CDR3 amino acid sequences, the CDR3 regions of the screened Fv antibodies were synthesized as peptides, and the amino acid sequences were determined from the nucleotide sequences of the CDR3 regions as summarized in Table 7. […]
row,Kd,Sequence
1,1300 ± 100 nM,CGPDSDVMTDF [Peptide-1]
2,3700 ± 1100 nM,DGTAKKSRKDD [Peptide-3]

row,Sequence,Kd
1,YGPVGRVKRDD [Peptide-2],1300 ± 300 nM

# Reference: patent US20260217863A1, “ANTIBODY OR PEPTIDE BINDING SPECIFICALLY TO RNASE A, IMMUNOASSAY DEVICE AND METHOD FOR DETECTING RNASE A, AND METHOD FOR COLLECTING RNASE A” (UIF (University Industry Foundation), Yonsei University, priority 2022, published 2026)
